According to PubChem BioAssay AID248 (DTP/NCI, 2004):
Where “and” joins values, the source holds several entries; their conditions need not be identical. Equal values may be shown once. Toxic doses and inconclusive results are not listed. Rule as the data show it: active = T/C of 150% or more; inactive = T/C below 125%.

System: L1210 leukemia ip in BDF1 mice, survival T/C
Test: NCI In Vivo Anticancer Drug Screen. Data for tumor model L1210 Leukemia (intraperitoneal) in B6D2F1 (BDF1) mice
Settings: endpoint: mean survival time, higher = longer survival
Procedure, shortened: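 Each compound was tested against a transplantable tumor grown in mice. The endpoint was survival, with treated animals benchmarked against vehicle controls as a simple ratio.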

[1] = dose: 50.0 mg/kg/injection, schedule: Q01DX009 (ip), vehicle: saline
[2] = dose: 200.0 mg/kg/injection, schedule: Q01DX009 (ip), vehicle: saline
[3] = dose: 100.0 mg/kg/injection, schedule: Q01DX001 (ip), vehicle: carboxymethylcellulose (CMC)
[4] = dose: 200.0 mg/kg/injection, schedule: Q01DX001 (ip), vehicle: carboxymethylcellulose (CMC)
[5] = dose: 400.0 mg/kg/injection, schedule: Q01DX001 (ip), vehicle: carboxymethylcellulose (CMC)
[6] = dose: 100.0 mg/kg/injection, schedule: Q01DX009 (ip), vehicle: Klucel (hydroxypropylcellulose) (HPC)
[7] = dose: 100.0 mg/kg/injection, schedule: Q04DX003 (ip), vehicle: Klucel (hydroxypropylcellulose) (HPC)
[8] = dose: 200.0 mg/kg/injection, schedule: Q01DX009 (ip), vehicle: Klucel (hydroxypropylcellulose) (HPC)
[9] = dose: 200.0 mg/kg/injection, schedule: Q04DX003 (ip), vehicle: Klucel (hydroxypropylcellulose) (HPC)
[10] = dose: 400.0 mg/kg/injection, schedule: Q01DX009 (ip), vehicle: Klucel (hydroxypropylcellulose) (HPC)
[11] = dose: 400.0 mg/kg/injection, schedule: Q04DX003 (ip), vehicle: Klucel (hydroxypropylcellulose) (HPC)
[12] = dose: 100.0 mg/kg/injection, schedule: Q04DX002 (ip), vehicle: saline with Tween-80

Measured: T/C

C(=NC12CC3CC(CC(C3)C1)C2)c1ccccc1
inactive: dose: 25.0 mg/kg/injection, schedule: Q01DX009 (ip), vehicle: saline 106 % of control | [1] 97 % of control | [2] 100 % of control | dose: 400.0 mg/kg/injection, schedule: Q01DX009 (ip), vehicle: saline 104 % of control

COC(=O)C1=C(O)CCCC=C1C(=O)O
inactive: [3] 100 % of control | [4] 103 % of control | [5] 103 % of control

O=S(=O)(/C=C/c1ccccc1)c1ccc2ccccc2c1
inactive: dose: 100.0 mg/kg/injection, schedule: Q01DX001 (ip), vehicle: acetone 97 % of control | dose: 100.0 mg/kg/injection, schedule: Q01DX009 (ip), vehicle: acetone 92 % of control | dose: 100.0 mg/kg/injection, schedule: Q04DX003 (ip), vehicle: acetone 102 % of control | dose: 200.0 mg/kg/injection, schedule: Q01DX001 (ip), vehicle: acetone 93 % of control | dose: 200.0 mg/kg/injection, schedule: Q01DX009 (ip), vehicle: acetone 92 % of control | dose: 200.0 mg/kg/injection, schedule: Q04DX003 (ip), vehicle: acetone 105 % of control | dose: 400.0 mg/kg/injection, schedule: Q01DX001 (ip), vehicle: acetone 90 % of control | dose: 400.0 mg/kg/injection, schedule: Q01DX009 (ip), vehicle: acetone 94 % of control | dose: 400.0 mg/kg/injection, schedule: Q04DX003 (ip), vehicle: acetone 102 % of control

O=c1cc(Cc2ccc(F)cc2)[nH]c(=O)[nH]1
inactive: dose: 25.0 mg/kg/injection, schedule: Q01DX001 (ip), vehicle: Klucel (hydroxypropylcellulose) (HPC) 97 % of control | dose: 50.0 mg/kg/injection, schedule: Q01DX001 (ip), vehicle: Klucel (hydroxypropylcellulose) (HPC) 101 % of control | dose: 100.0 mg/kg/injection, schedule: Q01DX001 (ip), vehicle: Klucel (hydroxypropylcellulose) (HPC) 96 % of control

CCCCCNC(=O)CCCC
inactive: [3] 103 % of control | dose: 100.0 mg/kg/injection, schedule: Q01DX009 (ip), vehicle: carboxymethylcellulose (CMC) 97 % of control and 108 % of control | dose: 100.0 mg/kg/injection, schedule: Q04DX002 (ip), vehicle: carboxymethylcellulose (CMC) 97 % of control | dose: 100.0 mg/kg/injection, schedule: Q04DX003 (ip), vehicle: carboxymethylcellulose (CMC) 101 % of control | [4] 104 % of control | dose: 200.0 mg/kg/injection, schedule: Q01DX009 (ip), vehicle: carboxymethylcellulose (CMC) 101 % of control and 103 % of control | dose: 200.0 mg/kg/injection, schedule: Q04DX002 (ip), vehicle: carboxymethylcellulose (CMC) 97 % of control | dose: 200.0 mg/kg/injection, schedule: Q04DX003 (ip), vehicle: carboxymethylcellulose (CMC) 97 % of control | dose: 400.0 mg/kg/injection, schedule: Q04DX002 (ip), vehicle: carboxymethylcellulose (CMC) 97 % of control | dose: 400.0 mg/kg/injection, schedule: Q04DX003 (ip), vehicle: carboxymethylcellulose (CMC) 94 % of control

Cc1cccc(C2CCCC2c2ccccc2)c1 (stereo not given)
inactive: [6] 96 % of control | [7] 110 % of control | [8] 89 % of control | [9] 94 % of control | [10] 101 % of control | [11] 108 % of control

CCC[CH2][Sn]([Br])([CH2]CCC)[CH2]CCC
inactive: dose: 3.13 mg/kg/injection, schedule: Q01DX009 (ip), vehicle: carboxymethylcellulose (CMC) 93 % of control and 103 % of control | dose: 6.25 mg/kg/injection, schedule: Q01DX009 (ip), vehicle: carboxymethylcellulose (CMC) 103 % of control (2×) and 104 % of control | dose: 6.25 mg/kg/injection, schedule: Q04DX003 (ip), vehicle: carboxymethylcellulose (CMC) 96 % of control | dose: 12.5 mg/kg/injection, schedule: Q01DX009 (ip), vehicle: carboxymethylcellulose (CMC) 93 % of control and 101 % of control and 103 % of control | dose: 12.5 mg/kg/injection, schedule: Q04DX002 (ip), vehicle: carboxymethylcellulose (CMC) 92 % of control and 103 % of control | dose: 12.5 mg/kg/injection, schedule: Q04DX003 (ip), vehicle: carboxymethylcellulose (CMC) 107 % of control | dose: 25.0 mg/kg/injection, schedule: Q04DX002 (ip), vehicle: carboxymethylcellulose (CMC) 93 % of control and 98 % of control

COc1ccccc1NC(=O)Nc1c(C)cccc1C
inactive: dose: 100.0 mg/kg/injection, schedule: Q01DX009 (ip), vehicle: gum acacia 97 % of control | dose: 100.0 mg/kg/injection, schedule: Q04DX003 (ip), vehicle: gum acacia 98 % of control | dose: 200.0 mg/kg/injection, schedule: Q01DX009 (ip), vehicle: gum acacia 88 % of control | dose: 200.0 mg/kg/injection, schedule: Q04DX003 (ip), vehicle: gum acacia 93 % of control | dose: 400.0 mg/kg/injection, schedule: Q01DX009 (ip), vehicle: gum acacia 90 % of control | dose: 400.0 mg/kg/injection, schedule: Q04DX003 (ip), vehicle: gum acacia 94 % of control

NC1(N)Sc2nc3ccccc3nc2S1
inactive: [12] 101 % of control

O=C(NO)C(=O)NO
inactive: [1] 98 % of control | dose: 100.0 mg/kg/injection, schedule: Q01DX009 (ip), vehicle: saline 113 % of control | [12] 90 % of control | [2] 117 % of control | dose: 200.0 mg/kg/injection, schedule: Q04DX002 (ip), vehicle: saline with Tween-80 107 % of control | dose: 400.0 mg/kg/injection, schedule: Q04DX002 (ip), vehicle: saline with Tween-80 110 % of control

S=C1NC2(CCCCC2)C2=C(CCCC2)S1
inactive: dose: 100.0 mg/kg/injection, schedule: Q04DX003 (ip), vehicle: saline with Tween-80 100 % of control | dose: 200.0 mg/kg/injection, schedule: Q04DX003 (ip), vehicle: saline with Tween-80 88 % of control | dose: 400.0 mg/kg/injection, schedule: Q04DX003 (ip), vehicle: saline with Tween-80 96 % of control

O=C(O)c1ccc(S(=O)(=O)N(Cl)Cl)cc1
inactive: dose: 100.0 mg/kg/injection, schedule: Q01DX009 (ip), vehicle: saline with Tween-80 96 % of control | dose: 200.0 mg/kg/injection, schedule: Q01DX009 (ip), vehicle: saline with Tween-80 100 % of control | dose: 400.0 mg/kg/injection, schedule: Q01DX009 (ip), vehicle: saline with Tween-80 98 % of control

COc1ccccc1OCCOCCNC1CC2CCC1(C)C2(C)C (stereo not given)
inactive: [7] 88 % of control

O=C1c2c(O)cccc2C(Br)c2cccc(O)c21
inactive: dose: 100.0 mg/kg/injection, schedule: Q01DX001 (ip), vehicle: water 108 % of control | dose: 100.0 mg/kg/injection, schedule: Q01DX009 (ip), vehicle: water 103 % of control | dose: 200.0 mg/kg/injection, schedule: Q01DX001 (ip), vehicle: water 108 % of control | dose: 200.0 mg/kg/injection, schedule: Q01DX009 (ip), vehicle: water 100 % of control | dose: 300.0 mg/kg/injection, schedule: Q01DX001 (ip), vehicle: water 104 % of control | dose: 400.0 mg/kg/injection, schedule: Q01DX009 (ip), vehicle: water 90 % of control

COC1(OC)C2(Cl)C=C(c3ccccc3)C1(Cl)C(Cl)=C2Cl (stereo not given)
inactive: [3] 92 % of control | [4] 97 % of control | [5] 94 % of control

O=C(O)c1cocc1C(=O)N1Cc2cc3ccccc3nc2C1
inactive: dose: 10.0 mg/kg/injection, schedule: Q04DX003 (ip), vehicle: saline 103 % of control | dose: 20.0 mg/kg/injection, schedule: Q04DX003 (ip), vehicle: saline 97 % of control | dose: 40.0 mg/kg/injection, schedule: Q04DX003 (ip), vehicle: saline 105 % of control | dose: 80.0 mg/kg/injection, schedule: Q04DX003 (ip), vehicle: saline 100 % of control | dose: 160.0 mg/kg/injection, schedule: Q04DX003 (ip), vehicle: saline 103 % of control

CC1(C)OC2C(CNS(C)(=O)=O)OC(n3cnc4c(N)ncnc43)C2O1 (stereo not given)
inactive: dose: 100.0 mg/kg/injection, schedule: Q01DX001 (ip), vehicle: saline 102 % of control | dose: 200.0 mg/kg/injection, schedule: Q01DX001 (ip), vehicle: saline 98 % of control | dose: 400.0 mg/kg/injection, schedule: Q01DX001 (ip), vehicle: saline 101 % of control

O=C1C(I)=CC(=C(c2cc(I)c(O)c(I)c2)c2ccccc2C(=O)O)C=C1I
inactive: [6] 94 % of control | [7] 98 % of control | [8] 89 % of control | [9] 98 % of control | [10] 98 % of control | [11] 98 % of control
